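96-well plates; 48 h exposure; 5 concentrations. Endpoints by linear interpolation between flanking doses. Not reached: highest tested concentration assigned. GI50: concentration for 50% inhibition of growth. TGI: total growth inhibition.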
How the values were obtained:
Test in all cases: inhibition of tumour cell growth, NCI panel, 48 h
HCT-15 colon = test system: HCT-15 colon
HOP-62 NSCLC = test system: HOP-62 NSCLC
HS 578T breast = test system: HS 578T breast
K-562 leukemia = test system: K-562 leukemia
RXF 393 renal = test system: RXF 393 renal
SF-539 CNS = test system: SF-539 CNS
SK-MEL-2 melanoma = test system: SK-MEL-2 melanoma
SNB-75 CNS = test system: SNB-75 CNS
U251 CNS = test system: U251 CNS
UACC-62 melanoma = test system: UACC-62 melanoma

| SMILES | GI50 (HCT-15 colon) [µM] | TGI (HCT-15 colon) [µM] | GI50 (HOP-62 NSCLC) [µM] | TGI (HOP-62 NSCLC) [µM] | GI50 (HS 578T breast) [µM] | TGI (HS 578T breast) [µM] | GI50 (K-562 leukemia) [µM] | TGI (K-562 leukemia) [µM] | GI50 (RXF 393 renal) [µM] | GI50 (SF-539 CNS) [µM] | GI50 (SK-MEL-2 melanoma) [µM] | TGI (SK-MEL-2 melanoma) [µM] | GI50 (SNB-75 CNS) [µM] | TGI (SNB-75 CNS) [µM] | GI50 (U251 CNS) [µM] | TGI (U251 CNS) [µM] | GI50 (UACC-62 melanoma) [µM] | TGI (UACC-62 melanoma) [µM] | TGI (RXF 393 renal) [µM] | TGI (SF-539 CNS) [µM] |
| --- | --- | --- | --- | --- | --- | --- | --- | --- | --- | --- | --- | --- | --- | --- | --- | --- | --- | --- | --- | --- |
| COc1ccc(-c2cncn2-c2cc(OC)c(OC)c(OC)c2)cc1F | < 0.01 | > 100 | < 0.0365 | > 100 | 0.332 | > 100 | < 0.01 | > 100 | < 0.0278 | < 0.0232 | < 0.0172 | > 100 | < 0.0119 | > 100 | < 0.0266 | > 100 | < 0.0117 | > 100 |  |  |
| COc1ccc(-n2sc(=O)n(Cc3ccc(COC(=O)C(C)c4ccc(CC(C)C)cc4)cc3)c2=O)cc1 (configuration not stated) | 1.1 | 2.86 | 8.84 | 21.1 | 4.77 | 13.8 | 1.43 | 10.4 | 1.27 | 5.12 | 8.01 | 17 | 5.95 | 12.2 | 6.83 | 14.5 | 4.03 | 10.5 | 3.79 | 10.9 |
| C=C=[CH][Sn]([c]1ccccc1)([c]1ccccc1)[c]1ccccc1 | 1.4 | 2.9 | 2.45 | 5.26 | 2.06 | 7.37 | 0.722 | 3.3 | 1.07 | 2.08 | 1.84 | 3.71 | 1.31 | 4.72 | 1.66 | 3.16 | 1.65 | 3.28 | 2.28 | 4.34 |
| CCOc1cc(/C=N\NC(=O)N/N=C/c2ccc(O)c(OCC)c2)ccc1O | 3.1 | > 100 |  | > 100 | 1.16 | > 100 | 0.441 | > 100 | 1.76 | 1.42 | 1.55 | > 100 | 2.76 | > 100 | 1.75 | > 100 | 1.79 | > 100 | 7.19 | > 100 |
| CC(C)N(C[C@H]1O[C@@H](n2cnc3c(N)ncnc32)[C@H](O)[C@@H]1O)C1CC(CCc2nc3ccc(C(C)(C)C)cc3[nH]2)C1 (some centres not stated) | > 100 | > 100 | > 100 | > 100 | > 76.5 | > 100 | 33.4 | > 75.3 | 21.2 | > 100 | > 69 | > 100 | 24.9 | > 100 | > 100 | > 100 | 99.7 | > 100 | > 100 | > 100 |
| ClC1=C(Cl)C(Cl)=C(Cl)C1=Cc1ccc(Cl)cc1 | 0.536 | 2.56 | 0.802 | 2.3 | 0.585 |  | 0.388 | 4.1 | 0.267 | 0.733 | 2.13 | 4.35 | 1.44 | 3.26 | 0.344 | 1.23 | 0.363 | 1.65 | 0.842 | 2.18 |
| C=C1CO[C@@H]2C[C@@H]1CC/C(C)=C/CC/C(C)=C/CC[C@@]2(C)O | 19.9 | 38 | 17.1 | 32.5 | 25.7 | > 83.4 | 15.1 | > 46.2 | 20 | 23.4 | 27.4 | > 64 | 25 | 46.3 | 17.9 | 32.4 | 18.4 | 35.1 | 39.3 | 43.6 |
| c1cnc2c(c1)Nc1cnncc1S2 |  | > 100 |  | > 100 |  | > 100 |  | > 100 |  |  |  | > 100 |  | 97.8 |  | > 100 |  | > 100 | > 100 | > 100 |
| CN(NC(=O)CC(=O)NN(C)C(=S)c1ccc(Cl)cc1)C(=S)c1ccc(Cl)cc1 | 7.72 | > 100 | 20.5 | 70.8 | 17.7 | 48.7 | 16.4 | > 100 | 14.7 | 27.6 | 22.7 | 81.8 | 22.5 | > 100 | 21.3 | > 100 | 11.2 | 30.2 | 65.4 | > 100 |
| C/C(=N\Nc1cccc(Cl)n1)c1ccccn1 | 0.363 | > 100 | 0.456 | 16.9 | 5.08 | > 100 | 0.574 | > 100 | 0.982 | 0.578 | 2.72 | > 100 | 2.28 | > 56.9 | 0.582 | > 100 | 1.22 | 4.93 | 16.1 | 4.53 |
| CC(=O)N[C@@H](Cc1ccc(OP(=O)(O)O)cc1)C(=O)N[C@H]1CCC(=O)N2CCC[C@@H](C(=O)NCc3ccc(O)cc3)N2C1=O | > 25 | > 25 | > 25 | > 25 | > 25 | > 25 | > 25 | > 25 | > 25 | > 25 | > 25 | > 25 | > 25 | > 25 | > 25 | > 25 | > 25 | > 25 | > 25 | > 25 |
| Cc1c(N2C(=O)/C(=C\c3ccc(N(C)C)cc3)N=C2c2ccccc2)c(=O)n(-c2ccccc2)n1C | > 100 | > 100 | > 100 | > 100 | > 100 | > 100 | 40.9 | > 100 | > 100 | > 100 | > 100 | > 100 | 60.2 | > 100 | > 92.4 | > 100 | > 100 | > 100 | > 100 | > 100 |
| O=C1c2ccccc2C(=O)c2sc(Nc3ccc(Cl)c(Cl)c3)nc21 |  | 5.06 |  | 21.3 |  | 53.2 |  | 17.9 |  |  |  | 33.2 |  | 26.7 |  | 6.05 |  | 7.94 | 12.4 | 8.18 |
| CCN1C(=O)N(CC)C2C1NN=c1s/c(=C\c3ccccc3)c(=O)n12 (configuration not stated) | 0.0692 | > 100 | 0.377 | > 100 | 0.146 | > 100 | 0.0505 | > 100 | 0.0748 | 0.106 |  | > 100 | 0.0487 |  | 0.316 | > 100 | 0.0596 | > 100 | > 100 | 0.554 |
| COc1cc(C2C(C#N)=C(N)Oc3cc4c(cc32)OCO4)cc2c1OCO2 (configuration not stated) | 0.446 | > 100 | 0.393 | > 100 | 0.328 | > 100 | 0.068 | > 100 | 0.146 | 0.279 | 0.525 | > 100 | 0.178 | > 100 | 0.314 | > 38 | 0.285 | > 100 | 0.546 |  |
| C[C@@H](Oc1cc(-c2cnn(C3CC4(CCCNC4)C3)c2)cnc1N)c1c(Cl)ccc(F)c1Cl (some centres not stated) | 1.3 | 3.16 | 1.21 | 4.92 | 1.63 | 4.47 | 0.265 | 1.41 | 1.28 | 1.59 | 1.69 | 3.24 | 1.64 | 3.96 | 1.41 | 3.43 | 1.58 | 3.09 | 2.62 | 3.02 |
| Cc1cccnc1CNC1CC(NCc2ncccc2C)CC(NCc2ncccc2C)C1 (configuration not stated) | 4.05 | 13.3 | 1.96 | 4.52 | 3.39 | 16.2 | 2.38 | 5.56 | 1.92 | 2.92 | 3.9 | > 100 | 2.21 | 4.32 | 1.81 | 3.36 | 1.82 | 3.63 | 3.9 | 9.38 |
| CC(C)CNc1nc(N=[N+]=[N-])nc(NCC(C)C)n1 | > 10 | > 10 | > 10 | > 10 | > 10 | > 10 | > 10 | > 10 | > 10 | > 10 | > 10 | > 10 | > 10 | > 10 | > 10 | > 10 | > 10 | > 10 | > 10 | > 10 |
| Nc1cccc2nsnc12 |  | > 100 |  | > 100 |  | > 100 |  | > 85.4 |  |  |  | > 100 |  | > 100 |  | > 100 |  | > 100 | > 100 | > 100 |
| Cc1cc2c(C(C)C)c(O)c(O)c(C=O)c2c(O)c1-c1c(C)cc2c(C(C)C)c(O)c(O)c(C=O)c2c1O (tested in a mixture with another compound) | 0.79 | 2.99 | 0.988 | 2.9 | 0.543 | 4.33 | 0.425 | 20.7 | 1 | 1.33 | 1.64 | 4.07 | 1.55 | 5.03 | 0.502 | 1.93 | 1.87 | 4.23 | 2.52 | 4.42 |
| N#CC[C@H](C1CCCC1)n1cc(-c2ncnc3[nH]ccc23)cn1 | 26.6 | > 100 | 17.2 | > 100 | 5.19 | 69.9 | 22.2 | > 100 | 4.06 | 16.7 | 30.5 | 78.2 | 3.3 | > 61.8 | 32.5 | > 100 | 37 | > 100 | 27.2 | 62.7 |
| Cc1cc2nc3c4ccccc4n(CCN(C)C)c3nc2cc1C | 1.77 | 10.4 | 1.11 | 7.74 | 1.57 | 5.76 | 1.55 | 10.7 | 1.56 | 1.83 | 1.9 | 4.24 | 1.28 | 3.2 | 2.01 | 11.3 | 1.43 | 2.82 | 4.1 | 4.66 |
| N#CSCC(=O)c1ccc(Cl)cc1 | 2.85 | 32.2 | 5.19 | 28.8 | 2.9 | 16.3 | 0.974 | > 40.3 | 2.05 | 2.85 | 5.45 | 25.7 | 2.75 | 22.2 | 3.23 | 16.6 | 6.4 | 21.5 | 5.18 | 14.9 |
| O=C(CC1(O)C(=O)Nc2c(Cl)ccc(Cl)c21)c1ccc(C2CC2)cc1 (configuration not stated) | 0.185 | 14.3 | 1.28 | 19.4 | 1.83 | 8.58 | 0.152 |  | 0.632 | 0.751 | 2.06 | 8.83 | 1.99 | 9.33 | 1.13 | 14.6 | 0.508 | 17.4 | 2.64 | 5.79 |
| CN1CCN(c2ccc3nc4c(nc3c2C(F)(F)F)C(=O)c2ncccc2C4=O)CC1 | 1.19 | 3.11 | 1.07 | 2.92 | 1.91 | 5.38 | 1.43 | 7.75 | 1.46 | 1.51 | 2.05 | 4.34 | 1.11 | 2.32 | 1.38 | 4.04 | 1.05 | 2.31 | 3.15 | 2.85 |
| Brc1ccc(Br)nn1 | 1.74 | 3.66 | 4.02 | 10.1 | 1.75 | 28.1 | 2.17 | 10.3 | 1.32 | 3.25 | 2.91 | 20.4 | 1.97 | 8.41 | 1.47 | 3.18 | 1.88 | 6.24 | 2.63 | 12.2 |

— PubChem BioAssay (NCI)
